From PubChem BioAssay AID248 (DTP/NCI, 2004)
“And” between values parts separate entries of the source, which are not always exact repeats. Equal entries are not always repeated. Inconclusive results and toxic doses are left out. Cut-off read from the data, not from the text of the source: active = T/C of 150% or more; inactive = T/C below 125%.

Tested on: L1210 leukemia ip in BDF1 mice, survival T/C
Experiment: NCI In Vivo Anticancer Drug Screen. Data for tumor model L1210 Leukemia (intraperitoneal) in B6D2F1 (BDF1) mice
Settings: endpoint: mean survival time, higher = longer survival
Outline: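 Tumor was transplanted into mice, which were then dosed with test compound or vehicle alone. Survival was recorded for each group, and the treated figure was expressed relative to the control figure.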

[1] = dose: 100.0 mg/kg/injection, schedule: Q01DX001 (ip), vehicle: saline
[2] = dose: 200.0 mg/kg/injection, schedule: Q01DX001 (ip), vehicle: saline
[3] = dose: 400.0 mg/kg/injection, schedule: Q01DX001 (ip), vehicle: saline
[4] = dose: 100.0 mg/kg/injection, schedule: Q04DX003 (ip), vehicle: saline
[5] = dose: 200.0 mg/kg/injection, schedule: Q04DX003 (ip), vehicle: saline
[6] = dose: 400.0 mg/kg/injection, schedule: Q04DX003 (ip), vehicle: saline
[7] = dose: 100.0 mg/kg/injection, schedule: Q01DX009 (ip), vehicle: saline with Tween-80
[8] = dose: 200.0 mg/kg/injection, schedule: Q01DX009 (ip), vehicle: saline with Tween-80
[9] = dose: 400.0 mg/kg/injection, schedule: Q01DX009 (ip), vehicle: saline with Tween-80
[10] = dose: 100.0 mg/kg/injection, schedule: Q04DX003 (ip), vehicle: saline with Tween-80
[11] = dose: 200.0 mg/kg/injection, schedule: Q04DX003 (ip), vehicle: saline with Tween-80
[12] = dose: 400.0 mg/kg/injection, schedule: Q04DX003 (ip), vehicle: saline with Tween-80
[13] = dose: 50.0 mg/kg/injection, schedule: Q01DX009 (ip), vehicle: saline with Tween-80
[14] = dose: 100.0 mg/kg/injection, schedule: Q01DX001 (ip), vehicle: saline with Tween-80
[15] = dose: 200.0 mg/kg/injection, schedule: Q01DX001 (ip), vehicle: saline with Tween-80

Measured: T/C

CCOC(=O)CC1=NC(C)(C)CC(C)O1 (stereo not drawn)
inactive: dose: 100.0 mg/kg/injection, schedule: Q04DX003 (ip), vehicle: saline sonified 98 % of control | dose: 200.0 mg/kg/injection, schedule: Q04DX003 (ip), vehicle: saline sonified 92 % of control | dose: 400.0 mg/kg/injection, schedule: Q04DX003 (ip), vehicle: saline sonified 115 % of control

Cc1ccc(/C(Cc2ccccc2)=N\NC(N)=O)cc1
inactive: [1] 92 % of control | [2] 98 % of control | [3] 98 % of control

S=P(Oc1ccccc1)(N1CC1)N1CC1
inactive: dose: 25.0 mg/kg/injection, schedule: Q01DX009 (ip), vehicle: acetone 98 % of control | dose: 50.0 mg/kg/injection, schedule: Q01DX009 (ip), vehicle: acetone 98 % of control | dose: 50.0 mg/kg/injection, schedule: Q04DX003 (ip), vehicle: saline 100 % of control | [1] 87 % of control | dose: 100.0 mg/kg/injection, schedule: Q01DX009 (ip), vehicle: acetone 93 % of control | [4] 92 % of control | dose: 150.0 mg/kg/injection, schedule: Q01DX009 (ip), vehicle: saline 87 % of control | [2] 94 % of control | dose: 225.0 mg/kg/injection, schedule: Q01DX009 (ip), vehicle: saline 87 % of control

CC(C)=C1C2C=CC1C(C(=O)N(C)C)C2C(=O)N(C)C (stereo not drawn)
inactive: dose: 100.0 mg/kg/injection, schedule: Q01DX009 (ip), vehicle: saline 96 % of control | [4] 113 % of control | dose: 200.0 mg/kg/injection, schedule: Q01DX009 (ip), vehicle: saline 98 % of control | [5] 108 % of control | dose: 400.0 mg/kg/injection, schedule: Q01DX009 (ip), vehicle: saline 104 % of control | [6] 100 % of control

COc1ccc(NC(=O)CC(C)(C)C(=O)O)cc1
inactive: [7] 94 % of control | [8] 92 % of control | [9] 90 % of control

Cc1cc(N(CCOS(C)(=O)=O)CCOS(C)(=O)=O)ccc1C=Nc1cc(Cl)c(O)c(Cl)c1
inactive: dose: 20.0 mg/kg/injection, schedule: Q04DX003 (ip), vehicle: Klucel (hydroxypropylcellulose) (HPC) 121 % of control | dose: 40.0 mg/kg/injection, schedule: Q04DX003 (ip), vehicle: Klucel (hydroxypropylcellulose) (HPC) 118 % of control | dose: 80.0 mg/kg/injection, schedule: Q04DX003 (ip), vehicle: Klucel (hydroxypropylcellulose) (HPC) 100 % of control

CSP(N)(N)=O
inactive: dose: 5.0 mg/kg/injection, schedule: Q01DX001 (ip), vehicle: saline 97 % of control | dose: 10.0 mg/kg/injection, schedule: Q01DX001 (ip), vehicle: saline 103 % of control

c1ccc2c(c1)ccc1c3ccncc3ccc21
inactive: [1] 101 % of control | [2] 98 % of control | [3] 98 % of control

O=[N+]([O-])c1ccc(CSCc2ccc(Cl)cc2)cc1
inactive: dose: 100.0 mg/kg/injection, schedule: Q01DX001 (ip), vehicle: carboxymethylcellulose (CMC) 97 % of control | dose: 200.0 mg/kg/injection, schedule: Q01DX001 (ip), vehicle: carboxymethylcellulose (CMC) 97 % of control | dose: 400.0 mg/kg/injection, schedule: Q01DX001 (ip), vehicle: carboxymethylcellulose (CMC) 94 % of control

CC(C)=CCC(C#N)(CCN1CCCCC1)c1cccc2ccccc12 (stereo not drawn)
inactive: dose: 12.5 mg/kg/injection, schedule: Q04DX003 (ip), vehicle: Klucel (hydroxypropylcellulose) (HPC) 99 % of control | dose: 25.0 mg/kg/injection, schedule: Q04DX003 (ip), vehicle: Klucel (hydroxypropylcellulose) (HPC) 103 % of control | dose: 50.0 mg/kg/injection, schedule: Q04DX003 (ip), vehicle: Klucel (hydroxypropylcellulose) (HPC) 100 % of control

OC1(C2CCCCC2)C2CCCC1CCC2 (stereo not drawn)
inactive: dose: 100.0 mg/kg/injection, schedule: Q01DX009 (ip), vehicle: other 94 % of control | [10] 99 % of control | dose: 200.0 mg/kg/injection, schedule: Q01DX009 (ip), vehicle: other 94 % of control | [11] 92 % of control | dose: 400.0 mg/kg/injection, schedule: Q01DX009 (ip), vehicle: other 101 % of control | [12] 103 % of control

O=CC(NC(=O)C(O)C(O)C(O)C(O)CO)C(O)C(O)C(O)CO (stereo not drawn)
inactive: [4] 102 % of control | [5] 97 % of control | [6] 91 % of control

CCN(CC)CCCC(C)Nc1ccnc(/C=C/c2ccc(C(F)(F)F)cc2)c1 (stereo not drawn)
inactive: dose: 12.5 mg/kg/injection, schedule: Q01DX001 (ip), vehicle: saline 98 % of control | dose: 20.0 mg/kg/injection, schedule: Q04DX003 (ip), vehicle: saline 95 % of control | dose: 25.0 mg/kg/injection, schedule: Q01DX001 (ip), vehicle: saline 96 % of control | dose: 40.0 mg/kg/injection, schedule: Q04DX003 (ip), vehicle: saline 95 % of control | dose: 50.0 mg/kg/injection, schedule: Q01DX001 (ip), vehicle: saline 104 % of control | dose: 80.0 mg/kg/injection, schedule: Q04DX003 (ip), vehicle: saline 93 % of control | [1] 86 % of control

OCCC1=CCCCC1
inactive: [10] 97 % of control | [11] 95 % of control | [12] 93 % of control

CC(=O)Nc1ccc(OC(=O)Nc2cccc(Cl)c2C)cc1
inactive: [13] 88 % of control and 92 % of control | [14] 92 % of control | dose: 100.0 mg/kg/injection, schedule: Q04DX002 (ip), vehicle: saline with Tween-80 87 % of control and 89 % of control | [10] 93 % of control | [15] 94 % of control | dose: 200.0 mg/kg/injection, schedule: Q04DX002 (ip), vehicle: saline with Tween-80 86 % of control | [11] 87 % of control | dose: 400.0 mg/kg/injection, schedule: Q01DX001 (ip), vehicle: saline with Tween-80 100 % of control | [9] 101 % of control | dose: 400.0 mg/kg/injection, schedule: Q04DX002 (ip), vehicle: saline with Tween-80 96 % of control and 86 % of control | [12] 90 % of control

Cc1ccc(CCl)cc1
inactive: [7] 102 % of control | [10] 100 % of control | [8] 102 % of control | [11] 104 % of control | [12] 102 % of control

CN(C)N=Nc1ccc(Cl)cc1
inactive: dose: 37.5 mg/kg/injection, schedule: Q04DX003 (ip), vehicle: saline with Tween-80 96 % of control | dose: 50.0 mg/kg/injection, schedule: Q01DX001 (ip), vehicle: saline with Tween-80 106 % of control | [13] 86 % of control | dose: 75.0 mg/kg/injection, schedule: Q04DX003 (ip), vehicle: saline with Tween-80 97 % of control | [14] 104 % of control | [1] 103 % of control | [7] 87 % of control | dose: 150.0 mg/kg/injection, schedule: Q04DX003 (ip), vehicle: saline with Tween-80 104 % of control | [15] 113 % of control | [2] 107 % of control | [8] 90 % of control | dose: 300.0 mg/kg/injection, schedule: Q04DX003 (ip), vehicle: saline with Tween-80 108 % of control | [3] 97 % of control | [9] 91 % of control

O=C(Nc1ccc2ccccc2c1)C1CC1
inactive: dose: 100.0 mg/kg/injection, schedule: Q04DX002 (ip), vehicle: Klucel (hydroxypropylcellulose) (HPC) 100 % of control | dose: 200.0 mg/kg/injection, schedule: Q04DX002 (ip), vehicle: Klucel (hydroxypropylcellulose) (HPC) 107 % of control | dose: 400.0 mg/kg/injection, schedule: Q04DX002 (ip), vehicle: Klucel (hydroxypropylcellulose) (HPC) 115 % of control

CC1=C(Cl)CS(=O)(=O)C1
inactive: [14] 104 % of control | [15] 100 % of control

O=[N+]([O-])c1cnccc1/C=C\c1ccccc1
inactive: dose: 100.0 mg/kg/injection, schedule: Q01DX001 (ip), vehicle: Klucel (hydroxypropylcellulose) (HPC) 86 % of control | dose: 200.0 mg/kg/injection, schedule: Q01DX001 (ip), vehicle: Klucel (hydroxypropylcellulose) (HPC) 105 % of control | dose: 400.0 mg/kg/injection, schedule: Q01DX001 (ip), vehicle: Klucel (hydroxypropylcellulose) (HPC) 94 % of control

O=C1NC2(C=CC(Br)CC2)C(=O)C12CCCCC2 (stereo not drawn) (tested in a mixture with another compound)
inactive: dose: 150.0 mg/kg/injection, schedule: Q01DX001 (ip), vehicle: saline 94 % of control

CC1CC1C(N)=O (stereo not drawn)
inactive: dose: 100.0 mg/kg/injection, schedule: Q04DX002 (ip), vehicle: saline 97 % of control | dose: 200.0 mg/kg/injection, schedule: Q04DX002 (ip), vehicle: saline 110 % of control
